The target in one series is T1, Prolyl endopeptidase FAP (Homo sapiens, UniProt Q12884).
T1 sequence (Q12884 whole entry): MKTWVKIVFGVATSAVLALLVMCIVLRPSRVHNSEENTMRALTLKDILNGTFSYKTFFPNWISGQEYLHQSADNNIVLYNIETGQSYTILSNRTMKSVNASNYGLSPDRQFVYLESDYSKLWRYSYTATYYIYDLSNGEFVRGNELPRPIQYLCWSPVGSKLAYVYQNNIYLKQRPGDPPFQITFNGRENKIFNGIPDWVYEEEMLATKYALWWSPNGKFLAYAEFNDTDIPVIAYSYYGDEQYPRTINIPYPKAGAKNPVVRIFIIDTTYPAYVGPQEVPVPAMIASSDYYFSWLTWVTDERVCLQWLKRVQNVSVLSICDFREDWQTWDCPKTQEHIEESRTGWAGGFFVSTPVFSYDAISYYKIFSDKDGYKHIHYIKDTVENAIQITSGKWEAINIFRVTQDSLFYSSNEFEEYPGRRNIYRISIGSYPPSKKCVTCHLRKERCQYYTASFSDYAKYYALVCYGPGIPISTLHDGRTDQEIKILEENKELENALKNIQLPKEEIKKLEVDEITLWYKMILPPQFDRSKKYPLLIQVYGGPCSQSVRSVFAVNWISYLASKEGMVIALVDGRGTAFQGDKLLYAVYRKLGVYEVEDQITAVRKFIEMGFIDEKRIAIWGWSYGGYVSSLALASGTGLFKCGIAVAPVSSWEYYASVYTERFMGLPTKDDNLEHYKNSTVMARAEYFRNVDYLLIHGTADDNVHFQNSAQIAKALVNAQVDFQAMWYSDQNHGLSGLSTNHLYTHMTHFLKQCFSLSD
In words: Inhibition of FAP.

Series [1] is described as follows: Clearance in rat at 1 mg/kg, iv and 2 mg/kg, po. The series is classed as ADME, organism-based. The conditions noted are these: in vivo.
Series [2] is described as follows: Half life in rat at 1 mg/kg, iv and 2 mg/kg, po. Format: ADME, organism-based. As to conditions: in vivo.
Series [3] is described as follows: Cmax in rat at 1 mg/kg, iv and 2 mg/kg, po. The conditions noted are these: in vivo. Format: ADME, organism-based.
Series [4] can be described thus: Oral bioavailability in rat at 2 mg/kg. Format: ADME, organism-based. As to conditions: in vivo.
Another series has as its target Dipeptidyl peptidase 9 (Homo sapiens, UniProt Q86TI2). In words: Inhibition of DPP9.
A further series addresses Dipeptidyl peptidase 2 (Homo sapiens, UniProt Q9UHL4). The experiment in a line: Inhibition of QPP.
For another series, the target named is Dipeptidyl peptidase 8 (Homo sapiens, UniProt Q6V1X1). In words: Inhibition of DPP8.
For the next series, the target named is Dipeptidyl peptidase 4 (Homo sapiens, UniProt P27487).

Molecules are shown by their SMILES.

Sequence of Dipeptidyl peptidase 8 (Q6V1X1 whole entry): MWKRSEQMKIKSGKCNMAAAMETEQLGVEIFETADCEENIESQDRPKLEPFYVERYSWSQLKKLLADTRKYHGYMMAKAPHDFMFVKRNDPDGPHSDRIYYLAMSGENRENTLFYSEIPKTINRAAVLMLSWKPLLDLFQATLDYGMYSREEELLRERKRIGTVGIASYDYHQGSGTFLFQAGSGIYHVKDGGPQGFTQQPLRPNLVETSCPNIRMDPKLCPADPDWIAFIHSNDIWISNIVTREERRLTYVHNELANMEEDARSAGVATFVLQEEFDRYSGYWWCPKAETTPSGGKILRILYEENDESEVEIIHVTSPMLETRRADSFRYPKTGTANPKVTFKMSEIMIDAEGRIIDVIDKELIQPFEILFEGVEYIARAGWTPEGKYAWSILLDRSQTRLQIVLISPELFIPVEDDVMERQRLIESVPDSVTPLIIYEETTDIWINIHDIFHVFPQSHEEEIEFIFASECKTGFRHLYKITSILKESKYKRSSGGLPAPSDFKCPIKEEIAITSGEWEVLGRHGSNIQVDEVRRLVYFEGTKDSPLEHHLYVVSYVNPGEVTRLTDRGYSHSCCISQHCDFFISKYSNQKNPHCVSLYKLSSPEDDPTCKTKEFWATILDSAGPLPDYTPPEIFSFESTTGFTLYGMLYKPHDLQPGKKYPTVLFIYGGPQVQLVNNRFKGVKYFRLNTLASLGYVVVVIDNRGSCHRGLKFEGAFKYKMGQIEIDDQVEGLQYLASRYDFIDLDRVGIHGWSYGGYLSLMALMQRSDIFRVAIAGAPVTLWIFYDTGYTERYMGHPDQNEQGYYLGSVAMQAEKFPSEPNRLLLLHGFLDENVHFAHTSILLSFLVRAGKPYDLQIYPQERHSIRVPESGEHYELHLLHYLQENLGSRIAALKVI
Sequence of Dipeptidyl peptidase 9 (Q86TI2 whole entry): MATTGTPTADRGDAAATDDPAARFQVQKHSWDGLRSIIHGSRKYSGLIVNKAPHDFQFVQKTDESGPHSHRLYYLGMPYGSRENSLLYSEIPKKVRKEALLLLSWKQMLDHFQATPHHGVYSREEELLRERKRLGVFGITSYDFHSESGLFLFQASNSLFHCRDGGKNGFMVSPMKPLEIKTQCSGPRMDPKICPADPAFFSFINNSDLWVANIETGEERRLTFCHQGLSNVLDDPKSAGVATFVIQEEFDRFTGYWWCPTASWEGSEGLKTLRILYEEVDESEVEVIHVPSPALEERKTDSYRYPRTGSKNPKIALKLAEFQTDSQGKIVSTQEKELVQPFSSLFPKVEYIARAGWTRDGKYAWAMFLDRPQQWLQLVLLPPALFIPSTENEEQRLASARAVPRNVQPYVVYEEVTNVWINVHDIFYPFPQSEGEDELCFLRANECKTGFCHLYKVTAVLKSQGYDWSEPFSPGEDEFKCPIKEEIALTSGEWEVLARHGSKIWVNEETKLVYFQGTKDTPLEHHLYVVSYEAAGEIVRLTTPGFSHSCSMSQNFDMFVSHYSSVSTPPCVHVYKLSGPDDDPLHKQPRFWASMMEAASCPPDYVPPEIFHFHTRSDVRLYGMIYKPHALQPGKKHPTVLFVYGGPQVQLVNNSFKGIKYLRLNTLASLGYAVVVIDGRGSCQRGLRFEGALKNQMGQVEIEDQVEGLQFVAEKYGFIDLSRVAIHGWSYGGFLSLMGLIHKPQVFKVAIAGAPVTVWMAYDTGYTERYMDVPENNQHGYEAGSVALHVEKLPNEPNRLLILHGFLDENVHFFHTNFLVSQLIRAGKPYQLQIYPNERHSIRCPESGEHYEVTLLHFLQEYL
Sequence of Dipeptidyl peptidase 4 (P27487 whole entry): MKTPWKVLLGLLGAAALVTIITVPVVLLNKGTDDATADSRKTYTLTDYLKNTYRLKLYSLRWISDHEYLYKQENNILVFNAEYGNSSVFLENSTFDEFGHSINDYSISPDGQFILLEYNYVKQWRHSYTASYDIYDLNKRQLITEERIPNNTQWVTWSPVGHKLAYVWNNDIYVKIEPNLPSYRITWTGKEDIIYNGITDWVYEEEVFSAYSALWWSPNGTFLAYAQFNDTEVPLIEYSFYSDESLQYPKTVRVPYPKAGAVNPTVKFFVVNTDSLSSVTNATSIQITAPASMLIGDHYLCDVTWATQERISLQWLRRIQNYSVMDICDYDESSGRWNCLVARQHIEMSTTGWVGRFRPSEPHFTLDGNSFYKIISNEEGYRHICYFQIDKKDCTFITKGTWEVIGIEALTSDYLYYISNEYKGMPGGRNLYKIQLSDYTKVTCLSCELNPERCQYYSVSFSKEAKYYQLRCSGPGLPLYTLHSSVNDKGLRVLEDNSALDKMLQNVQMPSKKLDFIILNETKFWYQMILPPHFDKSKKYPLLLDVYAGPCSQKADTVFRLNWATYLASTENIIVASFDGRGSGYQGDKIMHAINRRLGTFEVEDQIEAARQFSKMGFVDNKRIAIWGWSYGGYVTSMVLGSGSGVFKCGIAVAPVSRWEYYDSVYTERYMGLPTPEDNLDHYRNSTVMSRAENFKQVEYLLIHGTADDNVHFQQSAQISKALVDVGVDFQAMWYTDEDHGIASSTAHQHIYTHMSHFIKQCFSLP

For orientation: IC50 means the concentration at which inhibition is half-maximal. Lower therefore signals higher potency. Usually half-life stands for the time needed for the level to fall by half in the phase considered. The term Cmax denotes the highest concentration seen after dosing. For orientation: bioavailability means dose-corrected exposure relative to a reference, in per cent. For the molecule `N[C@H](Cc1cc(F)ccc1F)C1CCN(c2cncnc2)CC1`, at Prolyl endopeptidase FAP, the IC50 was over 35 µM. In series [1], this molecule came in with a clearance of 171 mL/min/kg. This molecule also gave a half-life in [2] of 0.92 h. In [3], this molecule had a Cmax of 19 nM. Further, the bioavailability in [4] was determined as 4.5%.
`CN([C@H]1CC[C@H]([C@H](N)Cc2cc(F)ccc2F)CC1)S(=O)(=O)c1cccc(C(N)=O)c1` showed an IC50 at Prolyl endopeptidase FAP of over 35 µM. The same molecule came in with a clearance in series [1] of 204 mL/min/kg. In addition, the Cmax in [3] was determined as 19 nM. This molecule also showed a bioavailability in series [4] of 13%.
Turning to `CN(C(=O)CCC(=O)O)[C@H]1CC[C@H]([C@H](N)Cc2cc(F)ccc2F)CC1`, the IC50 against Dipeptidyl peptidase 9 is over 100 µM; on Dipeptidyl peptidase 2, over 100 µM; against Dipeptidyl peptidase 8 it was over 100 µM; on Dipeptidyl peptidase 4 it was 0.14 µM; on Prolyl endopeptidase FAP, over 35 µM.
In the case of `Cn1cnc(S(=O)(=O)N(C)[C@H]2CC[C@H]([C@H](N)Cc3cc(F)ccc3F)CC2)c1`, the IC50 against Dipeptidyl peptidase 9 was over 100 µM; on Dipeptidyl peptidase 2, over 100 µM; against Dipeptidyl peptidase 8 it was over 100 µM; against Dipeptidyl peptidase 4, 0.5 µM; on Prolyl endopeptidase FAP, over 35 µM.
In the case of `CS(=O)(=O)N(CCCC(F)(F)F)[C@H]1CC[C@H]([C@H](N)Cc2cc(F)ccc2F)CC1`, the 50% inhibitory concentration (IC50) is over 100 µM on Dipeptidyl peptidase 9; 86 µM at Dipeptidyl peptidase 2; over 100 µM at Dipeptidyl peptidase 8; 2.4 µM against Dipeptidyl peptidase 4; over 35 µM against Prolyl endopeptidase FAP.
As to `Cc1noc(C)c1S(=O)(=O)N(C)[C@H]1CC[C@H]([C@H](N)Cc2cc(F)ccc2F)CC1`, the half-inhibitory concentration (IC50) is over 100 µM on Dipeptidyl peptidase 9; 63 µM at Dipeptidyl peptidase 2; over 100 µM at Dipeptidyl peptidase 8; 0.055 µM against Dipeptidyl peptidase 4; over 35 µM against Prolyl endopeptidase FAP. In addition, the clearance in series [1] came to 116 mL/min/kg. In [2], this molecule gave a half-life of 3 h. This molecule displayed a Cmax in [3] of 32 nM. The molecule also showed a bioavailability in [4] of 2.2%.
In the case of `CC(=O)N1CCC([C@H](N)Cc2cc(F)ccc2F)CC1`, the IC50 against Dipeptidyl peptidase 9 was over 100 µM; against Dipeptidyl peptidase 2 it was 66 µM; against Dipeptidyl peptidase 8 it was over 100 µM; at Dipeptidyl peptidase 4, 0.45 µM; against Prolyl endopeptidase FAP, over 35 µM.
Take `Cc1ccc(N2CCC([C@H](N)Cc3cc(F)ccc3F)CC2)c(C)n1`: at Prolyl endopeptidase FAP, the IC50 is over 35 µM. The clearance in [1] was determined as 154 mL/min/kg. This molecule also gave a half-life in series [2] of 2.8 h. For the same molecule, the Cmax in series [3] was determined as 69 nM. The molecule also showed a bioavailability in series [4] of 22%.
Take `CC(=O)N(C)[C@H]1CC[C@H]([C@H](N)Cc2cc(F)ccc2F)CC1`: the IC50 is 83 µM on Dipeptidyl peptidase 2, 0.12 µM at Dipeptidyl peptidase 4 and over 35 µM against Prolyl endopeptidase FAP. Besides, in series [1], the clearance was 177 mL/min/kg. For the same molecule, the half-life in series [2] is 1 h. Further, in series [3], the Cmax was 120 nM. The molecule also came in with a bioavailability in series [4] of 9.7%.
For `Cc1oncc1S(=O)(=O)N(C)[C@H]1CC[C@H]([C@H](N)Cc2cc(F)ccc2F)CC1`, the concentration for half-maximal inhibition (IC50) on Dipeptidyl peptidase 9 was over 100 µM; against Dipeptidyl peptidase 2 it was 43 µM; on Dipeptidyl peptidase 8, over 100 µM; against Dipeptidyl peptidase 4, 0.17 µM; at Prolyl endopeptidase FAP it was over 35 µM.
Regarding `Cc1noc(C)c1S(=O)(=O)N(CCCC(F)(F)F)[C@H]1CC[C@H]([C@H](N)Cc2cc(F)ccc2F)CC1`, the half-maximal inhibitory concentration (IC50) at Dipeptidyl peptidase 9 is over 100 µM; against Dipeptidyl peptidase 2, 40 µM; against Dipeptidyl peptidase 8, over 100 µM; on Dipeptidyl peptidase 4, 0.57 µM; on Prolyl endopeptidase FAP it was over 35 µM.
Consider `Cc1[nH]ncc1S(=O)(=O)N(C)[C@H]1CC[C@H]([C@H](N)Cc2cc(F)ccc2F)CC1`, for which the concentration for half-maximal inhibition (IC50) against Dipeptidyl peptidase 9 is over 100 µM; against Dipeptidyl peptidase 2, 57 µM; against Dipeptidyl peptidase 4 it was 0.28 µM; on Prolyl endopeptidase FAP it was over 35 µM.
As to `CCN(C(C)=O)[C@H]1CC[C@H]([C@H](N)Cc2cc(F)ccc2F)CC1`, the IC50 on Dipeptidyl peptidase 9 was over 100 µM; against Dipeptidyl peptidase 2 it was over 100 µM; at Dipeptidyl peptidase 8, over 100 µM; on Dipeptidyl peptidase 4 it was 0.26 µM; on Prolyl endopeptidase FAP it was over 35 µM.
For `CC(=O)N(CCCC(F)(F)F)[C@H]1CC[C@H]([C@H](N)Cc2cc(F)ccc2F)CC1`, the IC50 against Dipeptidyl peptidase 9 is over 100 µM; on Dipeptidyl peptidase 2, 51 µM; against Dipeptidyl peptidase 8 it was over 100 µM; on Dipeptidyl peptidase 4, 0.1 µM; on Prolyl endopeptidase FAP, over 35 µM.
For `CN([C@H]1CC[C@H]([C@H](N)Cc2cc(F)ccc2F)CC1)S(=O)(=O)c1ccc(OC(F)(F)F)cc1`, the IC50 was over 100 µM against Dipeptidyl peptidase 9; 29 µM on Dipeptidyl peptidase 2; over 100 µM against Dipeptidyl peptidase 8; 0.4 µM against Dipeptidyl peptidase 4; over 35 µM against Prolyl endopeptidase FAP.
For `CN([C@H]1CC[C@H]([C@H](N)Cc2cc(F)ccc2F)CC1)S(=O)(=O)c1ccc(-c2csnn2)cc1`, the IC50 against Dipeptidyl peptidase 2 is 8.5 µM; at Dipeptidyl peptidase 8, over 100 µM; against Dipeptidyl peptidase 4, 0.094 µM; at Prolyl endopeptidase FAP, over 35 µM. In addition, the clearance in [1] is 180 mL/min/kg. This molecule showed a half-life in [2] of 3.5 h. This molecule also displayed a peak concentration (Cmax) in series [3] of 190 nM. The same molecule showed a bioavailability in series [4] of 25%.
As for `NC(=O)[C@@H]1CCCN([C@H]2CC[C@H]([C@H](N)Cc3cc(F)ccc3F)CC2)C1`, on Prolyl endopeptidase FAP, the IC50 is over 35 µM. The same molecule registered a clearance in series [1] of 201 mL/min/kg. In series [2], this molecule had a half-life of 2.1 h. The same molecule registered a peak concentration (Cmax) in series [3] of 24 nM. The molecule further had a bioavailability in [4] of 24%.

(Values after ChEMBL document CHEMBL1681733, “Synthesis and evaluation of [(1R)-1-amino-2-(2,5-difluorophenyl)ethyl]cyclohexanes and 4-[(1R)-1-amino-2-(2,5-difluorophenyl)ethyl]piperidines as DPP-4 inhibitors” (Bioorg Med Chem Lett, 2011).)
